≈ marks a conversion by molar mass, not a printed value.
Tests used:
Type in all cases: functional
Candida albicans [1] = assay: Antifungal activity against Candida albicans ATCC 64124 measured after 48 hrs by broth microdilution analysis
Candida albicans [2] = assay: Antifungal activity against Candida albicans ATCC 10231 measured after 48 hrs by broth microdilution analysis
Candida albicans [3] = assay: Synergistic antifungal activity against Candida albicans ATCC 64124 assessed as itraconazole MIC measured after 48 hrs by checkboard based microplate reader analysis
Candida albicans [4] = assay: Synergistic antifungal activity against Candida albicans ATCC 10231 assessed as itraconazole MIC measured after 48 hrs by checkboard based microplate reader analysis
Candida albicans [5] = assay: Synergistic antifungal activity against Candida albicans ATCC 64124 assessed as fluconazole MIC measured after 48 hrs by checkboard based microplate reader analysis
Candida albicans [6] = assay: Synergistic antifungal activity against Candida albicans ATCC 10231 assessed as fluconazole MIC measured after 48 hrs by checkboard based microplate reader analysis
Candida albicans [7] = assay: Synergistic antifungal activity against Candida albicans ATCC 64124 assessed as ketoconazole MIC measured after 48 hrs by checkboard based microplate reader analysis
Candida albicans [8] = assay: Synergistic antifungal activity against Candida albicans ATCC 10231 assessed as ketoconazole MIC measured after 48 hrs by checkboard based microplate reader analysis
Candida albicans [9] = assay: Additive antifungal activity against Candida albicans ATCC 10231 assessed as fractional inhibitory concentration index measured for 72 hrs in presence of ketoconazole

Structure (SMILES): CCC(C)n1ncn(-c2ccc(N3CCN(c4ccc(OCC5COC(Cn6cncn6)(c6ccc(Cl)cc6Cl)O5)cc4)CC3)cc2)c1=O (stereo not drawn) [ITRACONAZOLE]
- MIC (Candida albicans [1]): > 32 µg/mL
- MIC (Candida albicans [2]): 1 µg/mL (≈ 1.42 µM)
- MIC (Candida albicans [3]): > 32 µg/mL
- MIC (Candida albicans [4]): 0.25 µg/mL

Structure (SMILES): OC(Cn1cncn1)(Cn1cncn1)c1ccc(F)cc1F [FLUCONAZOLE]
- MIC (Candida albicans [5]): > 32 µg/mL
- MIC (Candida albicans [6]): > 32 µg/mL
- MIC (Candida albicans [1]): > 32 µg/mL
- MIC (Candida albicans [2]): > 32 µg/mL

Structure (SMILES): CC(=O)N1CCN(c2ccc(OCC3COC(Cn4ccnc4)(c4ccc(Cl)cc4Cl)O3)cc2)CC1 (stereo not drawn) [KETOCONAZOLE]
- MIC (Candida albicans [1]): 8 µg/mL (≈ 15.1 µM)
- MIC (Candida albicans [2]): 1 µg/mL (≈ 1.88 µM)
- MIC (Candida albicans [7]): 4 µg/mL
- MIC (Candida albicans [8]): 0.5 µg/mL
- fractional inhibitory concentration index (FICI) (Candida albicans [9]): 2

— ChEMBL document CHEMBL5252541, “Repurposing antipsychotic drugs into antifungal agents: Synergistic combinations of azoles and bromperidol derivatives in the treatment of various fungal infections” (Eur J Med Chem, 2017)
